The text below walks through data of patent publication US20250228954A1, “Designing Antisense Oligonucleotide Delivery Peptides by Interpretable Machine Learning” (Sarepta Therapeutics, Inc., priority 2020, published 2025).

Square brackets hold non-standard residues; d marks the D form. Ends that are not written are not given here. Ahx = NCCCCCC(=O)O; βAla = NCCC(=O)O

For data set [1], the system named is HeLa 654 cells. As to the kind of experiment: HeLa-654 eGFP assay (corrective splicing / exon skipping by PMO IVS2-654). The class given is cell-based, human. Particulars: 5 μM, 22 h; for FOLD OVER PMO: eGFP fluorescence of PMO-peptide conjugate relative to unconjugated PMO. As to the method: With the 36 constructs synthesized, the ability to modulate PMO activity using the modified HeLa cell assay was tested. The HeLa-654 cells were stably transfected to express a nonfluorescent eGFP protein. The eGFP gene is interrupted by a mutant intron from the human β-globin gene (IVS2-654). The insertion alters pre-mRNA splicing to cause retention of a fragment in the mature mRNA that results in a nonfluorescent protein. PMO IVS2-654 base-pairs with the B-globin insertion, modifies mRNA splicing, and thereby leads to expression of fluorescent eGFP.
For treatment, the crude reaction mixture was diluted to 5 μM in media. The concentration of the modular construct was calculated based on the original concentration of the module 1-2 conjugate mixed in the reaction. Using media containing 10% fetal bovine serum (FBS), the cells were treated with each construct for 22 hours, after which the cellular fluorescence was measured by flow cytometry.
From the lists of hundreds of predicted peptide sequences, twenty candidates were selected that varied in length, charge, and predicted activity to synthesize and test. Just as with the PMO-peptide library, the PMO-Mach constructs were first tested for PMO delivery in the HeLa 654 assay at 5 μM in complete media for 22 hours and analyzed by flow cytometry (FIG. 14). Experiments were conducted using three technical triplicates and two or three biological replicates.
(§1) HeLa 654 cells were maintained in MEM supplemented with 10% (v/v) fetal bovine serum (FBS) and 1% (v/v) penicillin-streptomycin at 37° C. and 5% CO2. Eighteen hours prior to treatment, the cells were plated at a density of 5,000 cells per well in a 96-well plate in MEM supplemented with 10% FBS and 1% penicillin-streptomycin. The day of the experiment, the 384 well plate containing the crude reaction mixtures in DMSO was diluted to 100 μM by the addition of 16.8 μL of PBS to the 3.2 μL reaction mixture. Then, each construct was diluted to 5 μM in MEM supplemented with 10% FBS and 1% penicillin-streptomycin. Cells were incubated with each conjugate at a concentration of 5 μM for 22 hours at 37° C. and 5% CO2. Next, the treatment media was aspirated the cells were incubated with Trypsin-EDTA 0.25% for 15 min at 37° C. and 5% CO2, washed 1× with PBS, and resuspended in PBS with 2% FBS and 2 μg/mL propidium iodide. Flow cytometry analysis was carried out on a BD LSRII flow cytometer. Gates were applied to the data to ensure that cells that were highly positive for propidium iodide or had forward/side scatter readings that were sufficiently different from the main cell population were excluded. Each sample was capped at 5,000 gated events.
Analysis was conducted using Graphpad Prism 7. For each sample, the mean fluorescence intensity and the number of gated cells was measured (FIGS. 8 and 9) and the intensity multiplied by the cell number was calculated (FIG. 7).

Data set [2] concerns HeLa 654 cells. As to the kind of experiment: Cytotoxicity by gated cell count and propidium iodide staining in flow cytometry. Particulars: at the concentrations tested in dose-response, 22 h. Type of data set: cell-based, human.
From the text: The different modules led to several noticeable trends in the level of cellular fluorescence (FIG. 6). When module 2 was DPV6, the overall construct consistently led to high fluorescence, regardless of which peptides were placed in module 3 and 4. However, when either pVEC or TP10 was placed in module 2, minor cellular fluorescence was observed. A gated cell count was used during flow cytometry as an indirect read-out to control for the toxicity of the compounds. Highly toxic compounds led to a reduction in overall cell count and non-viable cells were gated out based upon propidium iodide staining. In this experiment, it was observed that when the module 3 peptide was the nuclear localization sequence KRVK, lower cell counts were consistently observed.
In the same format as described above, HeLa 654 cells were treated with varying concentrations of Mach 2, 3, 4, and 7 for 22 hours and analyzed by flow cytometry.
as §1

Take “P1: PMO IVS2-654 conjugate of peptide KXKKQQGKKKHR (SEQ ID NO: 69) (K[Ahx]KKQQGKKKHR; also: PMO IVS2-654 conjugate)”: the “FOLD OVER PMO” value in data set [1] amounted to 2.9.

For `CSCC[C@H](NC(=O)[C@H](CCCCN)NC(=O)[C@H](CCCCN)NC(=O)[C@@H]1CCCN1C(=O)[C@H](CCC(N)=O)NC(=O)[C@@H]1CCCN1C(=O)[C@@H](NC(=O)[C@H](CCCCN)NC(=O)[C@H](CCCCN)NC(=O)[C@H](CCCCN)NC(=O)[C@@H]1CCCN1C(=O)[C@H](Cc1c[nH]c2ccccc12)NC(=O)[C@H](CCCNC(=N)N)NC(=O)[C@H](Cc1c[nH]cn1)NC(=O)[C@H](CCCCN)NC(=O)[C@H](CCCCN)NC(=O)[C@H](CCCCN)NC(=O)[C@H](CC(N)=O)NC(=O)[C@H](CCC(N)=O)NC(=O)[C@H](CCCCN)NC(=O)[C@H](CCCCN)NC(=O)CNC(=O)[C@H](CCCCN)NC(=O)[C@H](CCCCN)NC(=O)CCCCn1nnc2c1-c1ccccc1N(C(=O)CCCCC(=O)N1C[C@@H](COP(=O)(N(C)C)N3C[C@@H](COP(=O)(N(C)C)N4C[C@@H](COP(=O)(N(C)C)N5C[C@@H](COP(=O)(N(C)C)N6C[C@@H](COP(=O)(N(C)C)N7C[C@@H](COP(=O)(N(C)C)N8C[C@@H](COP(=O)(N(C)C)N9C[C@@H](COP(=O)(N(C)C)N%10C[C@@H](COP(=O)(N(C)C)N%11C[C@@H](COP(=O)(N(C)C)N%12C[C@@H](COP(=O)(N(C)C)N%13C[C@@H](COP(=O)(N(C)C)N%14C[C@@H](COP(=O)(N(C)C)N%15C[C@@H](COP(=O)(N(C)C)N%16C[C@@H](COP(=O)(N(C)C)N%17C[C@@H](COP(=O)(N(C)C)N%18C[C@@H](COP(=O)(N(C)C)N%19C[C@@H](COP(=O)(N(C)C)N%20CCN(C(=O)OCCOCCOCCO)CC%20)O[C@@H](n%20cnc%21c(=O)[nH]c(N)nc%21%20)C%19)O[C@@H](n%19ccc(N)nc%19=O)C%18)O[C@@H](n%18cc(C)c(=O)[nH]c%18=O)C%17)O[C@@H](n%17cnc%18c(N)ncnc%18%17)C%16)O[C@@H](n%16cc(C)c(=O)[nH]c%16=O)C%15)O[C@@H](n%15cc(C)c(=O)[nH]c%15=O)C%14)O[C@@H](n%14cnc%15c(N)ncnc%15%14)C%13)O[C@@H](n%13ccc(N)nc%13=O)C%12)O[C@@H](n%12ccc(N)nc%12=O)C%11)O[C@@H](n%11cc(C)c(=O)[nH]c%11=O)C%10)O[C@@H](n%10cc(C)c(=O)[nH]c%10=O)C9)O[C@@H](n9cnc%10c(N)ncnc%109)C8)O[C@@H](n8cnc9c(N)ncnc98)C7)O[C@@H](n7ccc(N)nc7=O)C6)O[C@@H](n6ccc(N)nc6=O)C5)O[C@@H](n5ccc(N)nc5=O)C4)O[C@@H](n4cnc5c(N)ncnc54)C3)O[C@@H](n3cnc4c(=O)[nH]c(N)nc43)C1)Cc1ccccc1-2)C(C)C)C(=O)N[C@@H](Cc1ccccc1)C(=O)N[C@@H](CCCCN)C(=O)N[C@@H](CCC(N)=O)C(=O)NCC(=O)N[C@@H](C)C(=O)NCCC(=O)NCCCCCC(=O)N[C@@H](CCCNC(=N)N)C(=O)NCCCCCC(N)=O` (stereo partly drawn) [MACH 4], the “cytotoxicity as determined by cell count and PI staining” value in data set [2] was “no cytotoxicity”. In addition, in data set [1], the “FOLD OVER PMO” value was determined as 25.

Consider `CC[C@H](C)[C@H](NC(=O)[C@H](CO)NC(=O)[C@H](CC(C)C)NC(=O)[C@H](CCCCN)NC(=O)CNC(=O)[C@H](CCCCN)NC(=O)[C@@H]1CCCN1C(=O)[C@H](Cc1c[nH]c2ccccc12)NC(=O)[C@H](CC(N)=O)NC(=O)[C@H](CCCCN)NC(=O)[C@H](CCCCN)NC(=O)[C@H](CC(N)=O)NC(=O)[C@H](C)NC(=O)[C@H](CCCCN)NC(=O)[C@H](CO)NC(=O)[C@H](CCCCN)NC(=O)[C@H](CCCNC(=N)N)NC(=O)[C@H](CCCCN)NC(=O)[C@H](CCCCN)NC(=O)[C@H](CCC(N)=O)NC(=O)CCCCn1nnc2c1-c1ccccc1N(C(=O)CCCCC(=O)N1C[C@@H](COP(=O)(N(C)C)N3C[C@@H](COP(=O)(N(C)C)N4C[C@@H](COP(=O)(N(C)C)N5C[C@@H](COP(=O)(N(C)C)N6C[C@@H](COP(=O)(N(C)C)N7C[C@@H](COP(=O)(N(C)C)N8C[C@@H](COP(=O)(N(C)C)N9C[C@@H](COP(=O)(N(C)C)N%10C[C@@H](COP(=O)(N(C)C)N%11C[C@@H](COP(=O)(N(C)C)N%12C[C@@H](COP(=O)(N(C)C)N%13C[C@@H](COP(=O)(N(C)C)N%14C[C@@H](COP(=O)(N(C)C)N%15C[C@@H](COP(=O)(N(C)C)N%16C[C@@H](COP(=O)(N(C)C)N%17C[C@@H](COP(=O)(N(C)C)N%18C[C@@H](COP(=O)(N(C)C)N%19C[C@@H](COP(=O)(N(C)C)N%20CCN(C(=O)OCCOCCOCCO)CC%20)O[C@@H](n%20cnc%21c(=O)[nH]c(N)nc%21%20)C%19)O[C@@H](n%19ccc(N)nc%19=O)C%18)O[C@@H](n%18cc(C)c(=O)[nH]c%18=O)C%17)O[C@@H](n%17cnc%18c(N)ncnc%18%17)C%16)O[C@@H](n%16cc(C)c(=O)[nH]c%16=O)C%15)O[C@@H](n%15cc(C)c(=O)[nH]c%15=O)C%14)O[C@@H](n%14cnc%15c(N)ncnc%15%14)C%13)O[C@@H](n%13ccc(N)nc%13=O)C%12)O[C@@H](n%12ccc(N)nc%12=O)C%11)O[C@@H](n%11cc(C)c(=O)[nH]c%11=O)C%10)O[C@@H](n%10cc(C)c(=O)[nH]c%10=O)C9)O[C@@H](n9cnc%10c(N)ncnc%109)C8)O[C@@H](n8cnc9c(N)ncnc98)C7)O[C@@H](n7ccc(N)nc7=O)C6)O[C@@H](n6ccc(N)nc6=O)C5)O[C@@H](n5ccc(N)nc5=O)C4)O[C@@H](n4cnc5c(N)ncnc54)C3)O[C@@H](n3cnc4c(=O)[nH]c(N)nc43)C1)Cc1ccccc1-2)C(=O)N[C@@H](Cc1c[nH]cn1)C(=O)N[C@@H](C)C(=O)N[C@@H](CCCCN)C(=O)N[C@@H](CC(=O)O)C(=O)N[C@@H](Cc1ccc(O)cc1)C(=O)N[C@@H](CCCCN)C(=O)N[C@@H](CCC(N)=O)C(=O)NCC(=O)N1CCC[C@H]1C(=O)N[C@@H](CCCCN)C(=O)N[C@@H](C)C(=O)N[C@@H](CCCCN)C(=O)NCCCCCC(=O)N[C@@H](CCCNC(=N)N)C(=O)N[C@@H](CCCCN)C(=O)N[C@@H](CCC(N)=O)C(=O)N[C@@H](CCCNC(=N)N)C(=O)NCCCCCC(=O)N[C@@H](CCCNC(=N)N)C(N)=O` (stereo partly drawn) [MACH 3], for which the “cytotoxicity as determined by cell count and PI staining” value in data set [2] is recorded as “no cytotoxicity”. In addition, the “FOLD OVER PMO” value in data set [1] is reported as 38.

Turning to “P11: PMO IVS2-654 conjugate of peptide KKKKKQCKKKHRWPKXXC (SEQ ID NO: 79) (KKKKKQCKKKHRWPK[Ahx][Ahx]C; cysteine pairing not given here; also: PMO IVS2-654 conjugate)”, the “FOLD OVER PMO” value in data set [1] worked out at 12.9.

Turning to “MACH 11: PMO IVS2-654 conjugate of peptide TSNLKLHLAPPVKKKALKKPLYKAKKKKKVVSPTWXTDQEW (SEQ ID NO: 66), designed to have poor activity (TSNLKLHLAPPVKKKALKKPLYKAKKKKKVVSPTW[Ahx]TDQEW; also: PMO IVS2-654 conjugate)”, in data set [1], the “PMO delivery / activity, result in words” value was “did not significantly improve PMO delivery” and the “FOLD OVER PMO” value turned out to be 4.

Take “MACH 6: PMO IVS2-654 conjugate of peptide ALKBRSAAKAVRWPKKAIKQASKKVAKYALKXXRKKKAASKXWLQLHWPRW (SEQ ID NO: 62) (ALK[βAla]RSAAKAVRWPKKAIKQASKKVAKYALK[Ahx][Ahx]RKKKAASK[Ahx]WLQLHWPRW; also: PMO IVS2-654 conjugate)”: in data set [1], the “FOLD OVER PMO” value was found to be 43.
